Experiments:
[1] = target: T1, LINE1 reverse transcriptase (Homo sapiens, UniProt O00370); assay: Transient artificial-intron Cis LINE1 reporter assay; assay type: cell-based; set-up: expressed in transfected cells; settings: HEK 293 cells, ratio FLuc/RLuc reports LINE1 activity; read-out: IC50, inhibition of FLuc (FF/RR)
Protocol: Intron-disrupted Firefly luciferase (FLuc) expression cassettes were generated as described by Xie, Y. et al. “Characterization of L1 retrotransposition with high-throughput dual-luciferase assays,” Nucleic Acid Res. (2011) Vol. 39, No. 3, e16. In addition, the plasmid contained an intact Renilla luciferase (RLuc) expression cassette on the vector backbone, in order to normalize transfection efficiency and measure potential cell toxicity.
HEK 293 cells were seeded in 96-well plates at 1,000 cells/well in 55 μL and grown for 24 hours. Cells were transfected with FuGeneHD (Promega) following the manufacturer's protocol. Each well received 0.133 ng plasmid, 0.4 μL FuGeneHD reagent, and 4.5 μL GlutaMAX-I-supplemented Opti-MEM I reduced-serum medium (Invitrogen). Cells were simultaneously treated with test compound serially diluted starting at 100 μM in a 3-fold dilution dose response.
Luminescence was measured using the Dual-Glo Luciferase Assay System (Promega) following the manufacturer's instructions. The ratio between FLuc and RLuc gene expression was used to report LINE1 activity.

[2] = target: T1, LINE1 reverse transcriptase; assay: Stable artificial-intron Cis LINE1 reporter assay; assay type: cell-based; set-up: expressed in transfected cells; host or cells: HeLa Tet-On 3G (Takara, cat no 631183); settings: HeLa L1 artificial-intron reporter cells, doxycycline induced, 72 h, Firefly luciferase; read-out: IC50, inhibition of LINE1 reverse transcriptase
Description: A stable HeLa Tet-On 3G (Takara, cat no 631183) cell line expressing a bi-directional inducible LINE1 construct was generated as described in Xie, Y. et al. “Cell division promotes efficient retrotransposition in a stable L1 reporter cell line,” Mobile DNA (2013) 4:10. Single cell clones were screened for high Luciferase expression and the highest expression Firefly expressing clone was chosen for compound testing.
Test compound was serially diluted in DMSO and spotted in 96-well plates. Subsequently the HeLa L1 artificial-intron reporter cells were plated into the compound-containing wells (8,000 cells/well), and the cells were induced for reporter expression with doxycycline (Sigma cat no D9891) at a final concentration of 500 ng/mL. Luminescence was measured 72 h after plating using the Dual-Glo Luciferase Assay System (Promega cat no E2940) following the manufacturer's instructions. The Firefly Luciferase activity was used to report LINE1 activity.

[3] = target: T1, LINE1 reverse transcriptase; assay: Homogeneous time-resolved fluorescence (HTRF) LINE1 RT assay; assay type: biochemical; set-up: recombinant MBP-tagged LINE1 protein (238-1061); MBP; made in house; settings: recombinant MBP-tagged LINE1 protein (238-1061), read-out: IC50, inhibition of LINE1 reverse transcriptase
Protocol: The LINE1 reverse transcriptase homogeneous time-resolved fluorescence (HTRF) assay was performed with recombinant MBP-tagged LINE1 protein (238-1061) (generated and purified according to procedures in Dai L. et al. BMC Biochemistry 2011; 12:18) in a 384-well format. Test compound was serially diluted in DMSO and further diluted in the assay buffer (50 mM Tris-HCl, 50 mM KCl, 10 mM MgCl2, 10 mM DTT, pH 8.1) to achieve a final DMSO concentration of 1%. The serially diluted compound was mixed with 64 ng/well of LINE1 enzyme, 5 nM of pre-annealed template/biotin-primer pair (synthesized at Generay Biotechnology), 10 nM of Fluorescein-12-dATP fluorescent probe (Perkin Elmer), and 1 μM dGTP/dCTP/dTTP (Thermo Fisher Scientific) in the assay buffer. The template/biotin-primer sequences were as follows:
(§1) After incubating at 25° C. for 60 minutes, the detection reagent (20 mM EDTA with streptavidin-terbium cryptate, Cisbio Bioassay) in the PPI buffer (Cisbio Bioassay) was added, and the mixture was incubated at 25° C. for 30 minutes. At the end of the incubation, fluorescence was read at ex/em=337/485 nm and ex/em=337/520 nm on an Envision 2104 plate reader (Perkin Elmer). The fluorescence ratio at 520/485 nm was used for the calculation. […] The IC50 was calculated by fitting the compound dose inhibition curve with a 4-parameter non-linear regression equation.

[4] = target: HERV-K reverse transcriptase (Homo sapiens, UniProt V9H0F6); assay: Homogeneous time-resolved fluorescence (HTRF) HERV-K RT assay; assay type: biochemical; settings: HERV-K reverse transcriptase (2-596)-8His protein, read-out: IC50, inhibition of HERV-K reverse transcriptase
Protocol: The HERV-K reverse transcriptase homogeneous time-resolved fluorescence (HTRF) assay was performed in a 384-well format with HERV-K reverse transcriptase (2-596)-8His protein. Baculoviruses were created using Bac-to-Bac technology (Invitrogen). pFastBac donor plasmids containing HERV-K reverse transcriptase sequence (NCBI GenBank number AAC63291.1, J. Virology (1999) Vol. 73, No. 3, pp. 2365-2375) were transformed into DH10 Bac cells following the manufacturer's instructions. Recombinant bacmids were then isolated clonally and transfected into SF9 cells with lipofectin. HERV-K reverse transcriptase was expressed in the SF9 insect cells and then purified using immobilized metal affinity chromatography (IMAC) followed by size-exclusion chromatography (SEC). […]
as §1, with “30” for “60”, “20” for “(20”, “cryptate (Cisbio” for “cryptate, Cisbio”

THP1-Dual KO-TREX1 cells = assay: CellTiter-Glo cell viability in THP1 TREX1 KO cells; assay type: cell-based; settings: highest dose, with 1 μM 5-aza-2′-deoxycytidine, five days
Protocol: THP1 Dual TREX1 KO cells were purchased from Invivogen. The THP1-Dual™ KO-TREX1 cells were cultured in RPMI 1640, 10% heat-inactivated fetal bovine serum, 25 mM HEPES, 10 μg/mL Blasticidin, and 100 μg/mL Zeocin. THP1-Dual™ KO-TREX1 cells were treated with a dose titration of test compound in the presence of 1 μM 5-aza-2′-deoxycytidine (Sigma, cat #189825). Type 1 Interferon and cell viability were assessed after five days of treatment.
Stock solution of test compound was prepared in DMSO followed by a three-fold dilution in DMSO. Additional 50× dilution was prepared in cell culture media for each dilution. 10 μL of diluted test compound was then added to a 384-well plate.
THP1-Dual™ KO-TREX1 cells were treated with 1 μM 5-aza-2′-deoxycytidine. THP1-Dual™ KO-TREX1 cells (50 μL) were added to each well of the 384-well plate containing test compound titration at 10,000 cells/well. Cells were incubated at 37° C., 5% CO2 in a humidified incubator for five days. […] Luminescence was detected on a plate reader according to manufacturer's instructions. […]
The remaining cells were assessed for cell viability by adding 30 μl of CellTiter-Glo (Promega, 09683) solution to each well, and placed on a shaker for 10 minutes at room temperature. Luminescence was detected on a plate reader, according to manufacturer's instructions. […]

Chain of HERV-K reverse transcriptase (V9H0F6 entry or part of it): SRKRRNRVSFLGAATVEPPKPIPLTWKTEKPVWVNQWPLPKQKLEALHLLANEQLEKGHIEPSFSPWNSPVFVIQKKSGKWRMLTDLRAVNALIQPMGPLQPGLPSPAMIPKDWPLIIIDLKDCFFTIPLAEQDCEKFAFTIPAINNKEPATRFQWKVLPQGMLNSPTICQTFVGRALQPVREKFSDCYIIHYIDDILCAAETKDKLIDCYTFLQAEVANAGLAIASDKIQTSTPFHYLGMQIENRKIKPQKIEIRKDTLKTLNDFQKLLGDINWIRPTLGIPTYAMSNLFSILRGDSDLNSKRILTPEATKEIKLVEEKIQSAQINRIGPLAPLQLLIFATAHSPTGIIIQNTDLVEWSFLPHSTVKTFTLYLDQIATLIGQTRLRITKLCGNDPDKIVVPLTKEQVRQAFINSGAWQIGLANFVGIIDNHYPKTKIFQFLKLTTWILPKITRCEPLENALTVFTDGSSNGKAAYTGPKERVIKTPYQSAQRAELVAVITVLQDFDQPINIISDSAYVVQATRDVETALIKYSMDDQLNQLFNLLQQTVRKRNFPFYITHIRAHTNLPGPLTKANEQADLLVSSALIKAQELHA

COC(=O)[C@H](C)NP(=O)(OC[C@@H]1C=C[C@H](n2cc(C)c(=O)[nH]c2=O)O1)Oc1ccc(Br)cc1 (some centres unmarked) [drawing 36]
IC50 [1]: 0.0057 µM

COC(=O)[C@H](C)NP(=O)(OC[C@@H]1C=C[C@H](n2cc(C)c(=O)[nH]c2=O)O1)Oc1ccc(Br)cc1 (some centres unmarked) [drawing 37]
IC50 [2]: 0.017 µM

Cc1cn([C@H]2C=C[C@@H](COP(=O)(O)OP(=O)(O)OP(=O)(O)O)O2)c(=O)[nH]c1=O [drawing 38]
IC50 [3]: 0.023 µM

Cc1cn([C@H]2C=C[C@@H](COP(=O)(O)OP(=O)(O)OP(=O)(O)O)O2)c(=O)[nH]c1=O [drawing 39]
IC50 [4]: 0.042 µM

Cc1cn([C@H]2C=C[C@@H](CO)O2)c(=O)[nH]c1=O [stavudine, 1-((2R,5S)-5-(hydroxymethyl)-2,5-dihydrofuran-2-yl)-5-methylpyrimidine-2,4(1H,3H)-dione, reference compound]
reduction in cell viability (THP1-Dual KO-TREX1 cells): ~10%
